Assay: 40-day study in ob/ob mice on high fat diet: body weight and fat, metabolic parameters, liver indicators
Type: in vivo, C57 black ob/ob mice
Details: day 43
Protocol: Forty C57 black ob/ob mice were allocated to five groups of eight for study over 40 days as follows:
High fat diet—no treatment;
High fat diet—100 mg/kg/OD PYN22;
High fat diet—300 mg/kg/OD PYN22; • High fat diet—3 mg/kg/OD Rosiglitazone (positive control).
Mice were weighed twice per week and food intake measured daily throughout the study. Any laxative effects of treatments were visually examined and recorded.
Oral glucose tolerance tests were conducted on Day 7, Day 21 and Day 35.
Energy expenditure was measured at Day 14.
Fasting plasma insulin and lipids were measured on Days 7, 21 and 35.
Three days before sacrifice, 100 ul blood samples were taken from all animals to provide plasma glucose, insulin, free fatty acid, triglycerides, cholesterol and HDL-cholesterol.
At sacrifice, body mass and fat mass were calculated; the same parameters were also calculated for liver, heart and white adipose tissues.

CN(CCOc1ccc(CC2SC(=O)NC2=O)cc1)c1ccccn1 (centres unmarked) [Rosiglitazone]
actual liver weight (FIG. 11C): no effect | relative (% body weight) liver weight (FIG. 11D): no effect
